Experimental data reported in ChEMBL document CHEMBL4715902, “Thiophene-Pyrazolourea Derivatives as Potent, Orally Bioavailable, and Isoform-Selective JNK3 Inhibitors” (ACS Med Chem Lett, 2021).
Active and inactive are the calls of the source. No cut-off for these calls is given here.

Columns and labels:
[1] = target: Mitogen-activated protein kinase 14 (Homo sapiens, UniProt Q16539); assay: Inhibition of P38alpha (unknown origin)
SH-SY5Y = assay: Cytotoxicity against human SH-SY5Y cells assessed as cell viability at 10 uM after 48 hrs by MTT assay relative to control; format: cell-based
[2] = Metabolic stability in human liver microsomes assessed as half life; format: ADME, Microsome
[3] = Metabolic stability in mouse liver microsomes assessed as half life; format: ADME, Microsome
[4] = target: Mitogen-activated protein kinase 10 (Rattus norvegicus) (UniProt P49187); assay: Inhibition of JNK3 in rat primary neuron assessed as reduction in phosphorylation of APP at T688 residue at 10 nM incubated for 30 mins by Western blot analysis; settings: dose nM 10, time 30.0 min
Mitogen-activated protein kinase 10 (Rattus norvegicus), sequence (P49187 whole entry): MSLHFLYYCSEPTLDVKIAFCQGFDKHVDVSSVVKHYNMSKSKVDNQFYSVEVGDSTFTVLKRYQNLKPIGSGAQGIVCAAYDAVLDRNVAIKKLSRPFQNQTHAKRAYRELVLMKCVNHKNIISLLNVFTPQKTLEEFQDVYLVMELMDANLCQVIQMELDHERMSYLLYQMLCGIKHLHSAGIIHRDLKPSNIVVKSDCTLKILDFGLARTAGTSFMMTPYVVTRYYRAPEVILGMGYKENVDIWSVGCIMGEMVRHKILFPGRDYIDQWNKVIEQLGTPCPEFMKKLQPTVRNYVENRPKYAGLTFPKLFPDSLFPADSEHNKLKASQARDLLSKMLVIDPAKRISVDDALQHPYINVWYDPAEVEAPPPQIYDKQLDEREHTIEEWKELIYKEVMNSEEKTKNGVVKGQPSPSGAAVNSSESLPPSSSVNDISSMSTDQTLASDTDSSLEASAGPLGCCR

[5] = Brain concentration in C57BL/6J mouse at 10 mg/kg, po measured after 1 hr by LC-MS/MS analysis; format: ADME, organism-based; settings: read-out: Drug uptake
[6] = Plasma concentration in C57BL/6J mouse at 10 mg/kg, po measured after 1 hr by LC-MS/MS analysis; format: ADME, organism-based

Mitogen-activated protein kinase 14, sequence (Q16539 whole entry): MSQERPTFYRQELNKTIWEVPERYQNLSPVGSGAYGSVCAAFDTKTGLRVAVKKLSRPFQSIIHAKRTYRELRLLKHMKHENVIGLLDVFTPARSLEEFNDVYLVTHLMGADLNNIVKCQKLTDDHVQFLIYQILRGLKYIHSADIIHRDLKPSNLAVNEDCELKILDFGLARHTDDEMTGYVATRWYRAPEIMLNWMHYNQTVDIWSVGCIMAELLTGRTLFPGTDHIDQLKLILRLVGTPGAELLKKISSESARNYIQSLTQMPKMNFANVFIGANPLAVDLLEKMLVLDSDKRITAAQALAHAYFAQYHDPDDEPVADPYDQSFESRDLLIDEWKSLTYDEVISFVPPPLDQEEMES

Row | Structure (SMILES) | IC50 [1] [µM] | Activity (SH-SY5Y) [%] | t1/2 [2] [min] | t1/2 [3] [min] | inhibition [4] | concentration at 1 h [5] [nM] | concentration at 1 h [6] [nM]
1 | CN1CCC[C@H]1CNC(=O)c1cc(-n2cc(NC(=O)Nc3ccccc3Cl)cn2)cs1 | > 20 | – | – | – | – | – | –
2 | Cc1sc(C(=O)NC2COC2)cc1-n1cc(NC(=O)Nc2c(F)cccc2Cl)cn1 | – | 111 | 110 | 57 | – | – | –
3 | O=C(Nc1cnn(-c2cc(C(=O)NC3CNC3)cs2)c1)Nc1ccccc1Cl | > 20 | – | – | – | – | – | –
4 | O=C(Nc1cnn(-c2csc(C(=O)N[C@@H]3CCOC3)c2)c1)Nc1ccccc1Cl | > 20 | 112 | 33 | 13 | – | – | –
5 | O=C(Nc1cnn(-c2csc(C(=O)NC3COC3)c2)c1)Nc1ccc(F)cc1Cl | – | 104 | > 120 | 68 | Active | – | –
6 | O=C(Nc1cnn(-c2csc(C(=O)NC3COC3)c2)c1)Nc1c(F)cccc1Cl | – | 102 | 100 | 72 | – | – | –
7 | CN1CC[C@@H](NC(=O)c2cc(-n3cc(NC(=O)Nc4ccccc4Cl)cn3)cs2)C1 | > 20 | – | – | – | – | – | –
8 | O=C(Nc1cnn(-c2csc(C(=O)NCC3CCOCC3)c2)c1)Nc1ccccc1Cl | – | 95 | 8 | 15 | – | – | –
9 | O=C(Nc1cnn(-c2csc(C(=O)NC[C@H]3CCOC3)c2)c1)Nc1ccccc1Cl | > 20 | – | – | – | – | – | –
10 | CN1CC[C@H](NC(=O)c2cc(-n3cc(NC(=O)Nc4ccccc4Cl)cn3)cs2)C1 | > 20 | 94 | 54 | – | – | – | –
11 | CN1CC[C@H](CNC(=O)c2cc(-n3cc(NC(=O)Nc4ccccc4Cl)cn3)cs2)C1 | > 20 | – | – | – | – | – | –
12 | O=C(Nc1cnn(-c2csc(C(=O)NC3COC3)c2)c1)Nc1ccccc1Cl | > 20 | 104 | 66 | 24 | Active | 1080 | 960
13 | O=C(Nc1cnn(-c2csc(C(=O)NC3CCOCC3)c2)c1)Nc1ccccc1Cl | – | 97 | – | 16 | – | – | –
14 | O=C(Nc1cnn(-c2csc(C(=O)N[C@@H]3CCNC3)c2)c1)Nc1ccccc1Cl | > 20 | – | – | – | – | – | –
15 | Cc1sc(C(=O)N[C@@H]2CCOC2)cc1-n1cc(NC(=O)Nc2c(F)cccc2Cl)cn1 | – | 114 | 40 | 38 | Active | – | –
16 | CN1CCC(NC(=O)c2cc(-n3cc(NC(=O)Nc4ccccc4Cl)cn3)cs2)CC1 | – | 89 | 92 | 15 | – | – | –
17 | CC(C)N1CC[C@H](NC(=O)c2cc(-n3cc(NC(=O)Nc4ccccc4Cl)cn3)cs2)C1 | > 20 | – | – | – | – | – | –
18 | O=C(Nc1cnn(-c2csc(C(=O)NC3CC3)c2)c1)Nc1ccccc1Cl | – | 103 | 49 | 35 | – | – | –
19 | [2H]C([2H])([2H])N1CC[C@@H](NC(=O)c2cc(-n3cc(NC(=O)Nc4ccccc4Cl)cn3)cs2)C1 | > 20 | – | – | – | – | – | –
